The target of one test is CK1ε (Homo sapiens (Human), UniProt P49674). In words: CK1ε kinase assay (Caliper LABCHIP electrophoretic separation of fluoresceinated peptide substrate and product). The class given is biochemical. The following applies: 200 pM CK1ε, 50 μM ATP, 1.5 μM peptide substrate, 22 hours at room temperature; read-out: CK1ε (IC50). The method in brief: (§1)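 Each reaction was incubated 22 hours at room temperature and terminated with EDTA. Read-out was microfluidic electrophoretic separation of fluoresceinated substrate and phospho-product.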

The target of a further test is CK1δ (Homo sapiens (Human), UniProt P48730). In words: CK1δ kinase assay (Caliper LABCHIP electrophoretic separation of fluoresceinated peptide substrate and product). It counts as biochemical. To be noted: 200 pM CK1δ, 50 μM ATP, 1.5 μM peptide substrate, 22 hours at room temperature; read-out: CK1δ (IC50). An outline of the steps: as §1

Molecules are shown by their SMILES.

Sequence of CK1ε (P49674 whole entry): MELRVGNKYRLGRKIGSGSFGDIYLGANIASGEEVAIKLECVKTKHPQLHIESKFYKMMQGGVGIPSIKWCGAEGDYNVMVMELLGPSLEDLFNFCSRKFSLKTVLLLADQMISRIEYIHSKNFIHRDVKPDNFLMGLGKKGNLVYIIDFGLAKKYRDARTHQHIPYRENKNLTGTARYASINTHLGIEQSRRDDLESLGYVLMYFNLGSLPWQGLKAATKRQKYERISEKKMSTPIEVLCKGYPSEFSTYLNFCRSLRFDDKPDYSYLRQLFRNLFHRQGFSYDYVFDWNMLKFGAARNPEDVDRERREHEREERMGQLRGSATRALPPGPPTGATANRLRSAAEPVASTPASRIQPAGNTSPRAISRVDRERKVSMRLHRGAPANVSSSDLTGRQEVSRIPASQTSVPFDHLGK
Sequence of CK1δ (P48730 whole entry): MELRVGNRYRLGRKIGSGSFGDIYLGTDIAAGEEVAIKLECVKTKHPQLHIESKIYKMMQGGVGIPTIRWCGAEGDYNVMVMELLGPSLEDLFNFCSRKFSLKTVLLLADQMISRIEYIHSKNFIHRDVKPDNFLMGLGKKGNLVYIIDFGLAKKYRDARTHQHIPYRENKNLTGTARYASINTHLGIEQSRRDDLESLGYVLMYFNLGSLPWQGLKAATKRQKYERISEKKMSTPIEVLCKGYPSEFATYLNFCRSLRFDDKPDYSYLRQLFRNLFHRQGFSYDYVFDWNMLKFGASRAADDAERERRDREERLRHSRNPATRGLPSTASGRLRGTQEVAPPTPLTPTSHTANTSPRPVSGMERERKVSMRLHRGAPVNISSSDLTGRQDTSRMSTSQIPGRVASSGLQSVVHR

As to `NC(=O)c1c(-c2cccc(Cl)c2)nn2c1CN(C(=O)Nc1ccc(Cl)nc1)CC2` [Compound 171, 2-(3-Chlorophenyl)-N^5-(6-chloropyridin-3-yl)-6,7-dihydropyrazolo[1,5-a] pyrazine-3,5(4H)-dicarboxamide], the 50% inhibitory concentration (IC50) on CK1ε and on CK1δ was 0.01 to 10 nM throughout.

As for `N#Cc1ccc(NC(=O)N2CCn3nc(-c4ccc(F)c(Cl)c4)c(C(N)=O)c3C2)cc1` [Compound 172], the IC50 on CK1ε and at CK1δ was 0.01 to 10 nM in each case.

With `NC(=O)c1c(-c2ccc(F)c(Cl)c2)nn2c1CN(C(=O)Nc1cc(Cl)cc(Cl)c1)CC2` [Compound 173, 2-(3-Chloro-4-fluorophenyl)-N^5-(3,5-dichlorophenyl)-6,7-dihydropyrazolo[1,5-a] pyrazine-3,5(4H)-dicarboxamide], the IC50 on CK1ε and at CK1δ was 0.01 to 10 nM each time.

As for `Cc1ccc(NC(=O)N2CCn3nc(-c4ccc(F)c(Cl)c4)c(C(N)=O)c3C2)cc1C` [Compound 175, 2-(3-Chloro-4-fluorophenyl)-N^5-(3,4-dimethylphenyl)-6,7-dihydropyrazolo[1,5-a] pyrazine-3,5(4H)-dicarboxamide], the IC50 at CK1ε and at CK1δ was 0.01 to 10 nM throughout.

Consider `NC(=O)c1c(-c2ccc(F)c(Cl)c2)nn2c1CN(C(=O)Nc1ccc(C(F)(F)F)c(Cl)c1)CC2` [Compound 176, N^5-(3-Chloro-4-(trifluoromethyl)phenyl)-2-(3-chloro-4-fluorophenyl)-6,7-dihydropyrazolo[1,5-a] pyrazine-3,5(4H)-dicarboxamide], for which the IC50 on CK1ε and on CK1δ was 0.01 to 10 nM each time.

For the molecule `NC(=O)c1ccc(NC(=O)N2CCn3nc(-c4ccc(F)c(Cl)c4)c(C(N)=O)c3C2)cc1` [Compound 180, N^5-(4-Carbamoylphenyl)-2-(3-chloro-4-fluorophenyl)-6,7-dihydropyrazolo[1,5-a] pyrazine-3,5(4H)-dicarboxamide], the IC50 on CK1ε and at CK1δ was 0.01 to 10 nM each time.

Consider `NC(=O)c1c(-c2ccc(F)c(Cl)c2)nn2c1CN(C(=O)Nc1ccc(OC(F)(F)F)cc1)CC2` [Compound 181, 2-(3-Chloro-4-fluorophenyl)-N^5-(4-(trifluoromethoxy)phenyl)-6,7-dihydropyrazolo[1,5-a] pyrazine-3,5(4H)-dicarboxamide], for which the IC50 at CK1ε and on CK1δ was 0.01 to 10 nM each time.

Take `NC(=O)c1c(-c2ccc(F)c(Cl)c2)nn2c1CN(C(=O)Nc1ccc(Cl)c(Cl)c1)CC2` [Compound 182, 2-(3-Chloro-4-fluorophenyl)-N^5-(3,4-dichlorophenyl)-6,7-dihydropyrazolo[1,5-a] pyrazine-3,5(4H)-dicarboxamide]: the concentration for half-maximal inhibition (IC50) on CK1ε and on CK1δ was 0.01 to 10 nM in each case.

As to `NC(=O)c1c(-c2ccc(F)c(Cl)c2)nn2c1CN(C(=O)Nc1ccc(F)c(F)c1)CC2` [Compound 183, 2-(3-Chloro-4-fluorophenyl)-N^5-(3,4-difluorophenyl)-6,7-dihydropyrazolo[1,5-a] pyrazine-3,5(4H)-dicarboxamide], the concentration for half-maximal inhibition (IC50) at CK1ε and at CK1δ was 0.01 to 10 nM throughout.

Take `NC(=O)c1c(-c2ccc(F)c(Cl)c2)nn2c1CN(C(=O)Nc1cccc(OC(F)(F)F)c1)CC2` [Compound 184, 2-(3-Chloro-4-fluorophenyl)-N^5-(3-(trifluoromethoxy)phenyl)-6,7-dihydropyrazolo[1,5-a] pyrazine-3,5(4H)-dicarboxamide]: the IC50 at CK1ε and at CK1δ was 0.01 to 10 nM throughout.

As to `NC(=O)c1c(-c2ccc(F)c(Cl)c2)nn2c1CN(C(=O)Nc1ccc(F)c(Cl)c1)CC2` [Compound 185, N^5,2-Bis(3-chloro-4-fluorophenyl)-6,7-dihydropyrazolo[1,5-a] pyrazine-3,5(4H)-dicarboxamide], the IC50 at CK1ε and on CK1δ was 0.01 to 10 nM each time.

With `NC(=O)c1c(-c2ccc(F)c(Cl)c2)nn2c1CN(C(=O)Nc1cccc(F)c1)CC2` [Compound 186, 2-(3-Chloro-4-fluorophenyl)-N^5-(3-fluorophenyl)-6,7-dihydropyrazolo[1,5-a] pyrazine-3,5(4H)-dicarboxamide], the IC50 at CK1ε and at CK1δ was 0.01 to 10 nM each time.

`NC(=O)c1c(-c2ccc(F)c(Cl)c2)nn2c1CN(C(=O)Nc1cc(F)c(F)c(F)c1)CC2` [Compound 187, 2-(3-Chloro-4-fluorophenyl)-N^5-(3,4,5-trifluorophenyl)-6,7-dihydropyrazolo[1,5-a] pyrazine-3,5(4H)-dicarboxamide]: the IC50 at CK1ε and at CK1δ was 0.01 to 10 nM throughout.

Take `NC(=O)c1c(-c2ccc(F)c(Cl)c2)nn2c1CN(C(=O)Nc1cc(C(F)(F)F)cc(C(F)(F)F)c1)CC2` [Compound 188, N^5-(3,5-Bis(trifluoromethyl)phenyl)-2-(3-chloro-4-fluorophenyl)-6,7-dihydropyrazolo[1,5-a] pyrazine-3,5(4H)-dicarboxamide]: the IC50 on CK1ε and at CK1δ was 0.01 to 10 nM in each case.

For the molecule `COc1ccc(NC(=O)N2CCn3nc(-c4ccc(F)c(Cl)c4)c(C(N)=O)c3C2)cc1C(F)(F)F` [Compound 189, 2-(3-Chloro-4-fluorophenyl)-N^5-(4-methoxy-3-(trifluoromethyl)phenyl)-6,7-dihydropyrazolo[1,5-a]pyrazine-3,5(4H)-dicarboxamide], the half-maximal inhibitory concentration (IC50) on CK1ε and at CK1δ was 0.01 to 10 nM each time.

For `NC(=O)c1c(-c2ccc(F)c(Cl)c2)nn2c1CN(C(=O)Nc1ccc(F)c(C(F)(F)F)c1)CC2` [Compound 190, 2-(3-Chloro-4-fluorophenyl)-N^5-(4-fluoro-3-(trifluoromethyl)phenyl)-6,7-dihydropyrazolo[1,5-a] pyrazine-3,5(4H)-dicarboxamide], the half-maximal inhibitory concentration (IC50) at CK1ε and on CK1δ was 0.01 to 10 nM each time.

As to `NC(=O)c1c(-c2ccc(F)c(Cl)c2)nn2c1CN(C(=O)Nc1cccc(F)c1F)CC2` [Compound 191, 2-(3-Chloro-4-fluorophenyl)-N^5-(2,3-difluorophenyl)-6,7-dihydropyrazolo[1,5-a] pyrazine-3,5(4H)-dicarboxamide], the 50% inhibitory concentration (IC50) at CK1ε and at CK1δ was 0.01 to 10 nM in each case.

On to `N#Cc1ccc(NC(=O)N2CCn3nc(-c4ccc(F)c(Cl)c4)c(C(N)=O)c3C2)nc1` [Compound 193, 2-(3-Chloro-4-fluorophenyl)-N^5-(5-cyanopyridin-2-yl)-6,7-dihydropyrazolo[1,5-a] pyrazine-3,5(4H)-dicarboxamide], for which the half-maximal inhibitory concentration (IC50) at CK1ε and on CK1δ was 0.01 to 10 nM in each case.

Turning to `CS(=O)(=O)c1ccc(NC(=O)N2CCn3nc(-c4ccc(F)c(Cl)c4)c(C(N)=O)c3C2)nc1` [Compound 195, 2-(3-Chloro-4-fluorophenyl)-N^5-(5-(methylsulfonyl)pyridin-2-yl)-6,7-dihydropyrazolo[1,5-a] pyrazine-3,5(4H)-dicarboxamide], the concentration for half-maximal inhibition (IC50) at CK1ε and at CK1δ was 0.01 to 10 nM throughout.

As for `N#Cc1cccc(NC(=O)N2CCn3nc(-c4ccc(F)c(Cl)c4)c(C(N)=O)c3C2)c1` [Compound 200, 2-(3-Chloro-4-fluorophenyl)-N^5-(3-cyanophenyl)-6,7-dihydropyrazolo[1,5-a] pyrazine-3,5(4H)-dicarboxamide], the 50% inhibitory concentration (IC50) on CK1ε and on CK1δ was 0.01 to 10 nM each time.
